Test results: ChEMBL document CHEMBL1671705, “Investigations into the role of the Plasmodium falciparum SERCA (PfATP6) L263E mutation in artemisinin action and resistance” (Antimicrob Agents Chemother, 2010)

Experiments:
Type in all cases: functional, organism-based
Plasmodium falciparum [1] = experiment: Antimalarial activity against Plasmodium falciparum 7G8 harboring pfATP6 L263 mutant assessed as inhibition of [3H]hypoxanthine incorporation
Plasmodium falciparum [2] = experiment: Antimalarial activity against Plasmodium falciparum 7G8 harboring pfATP6 263E mutant assessed as inhibition of [3H]hypoxanthine incorporation
Plasmodium falciparum [3] = experiment: Antimalarial activity against Plasmodium falciparum D10 harboring pfATP6 L263 mutant assessed as inhibition of [3H]hypoxanthine incorporation
Plasmodium falciparum [4] = experiment: Antimalarial activity against Plasmodium falciparum D10 harboring pfATP6 263E mutant assessed as inhibition of [3H]hypoxanthine incorporation
Plasmodium falciparum [5] = experiment: Antimalarial activity against Plasmodium falciparum 7G8 clone 1 harboring pfATP6 L263 mutant assessed as inhibition of [3H]hypoxanthine incorporation
Plasmodium falciparum [6] = experiment: Antimalarial activity against Plasmodium falciparum 7G8 clone 1 assessed as inhibition of [3H]hypoxanthine incorporation
Plasmodium falciparum [7] = experiment: Antimalarial activity against Plasmodium falciparum 7G8 clone 2 assessed as inhibition of [3H]hypoxanthine incorporation
Plasmodium falciparum [8] = experiment: Antimalarial activity against Plasmodium falciparum 7G8 clone M1 harboring pfATP6 L263 mutant assessed as inhibition of [3H]hypoxanthine incorporation
Plasmodium falciparum [9] = experiment: Antimalarial activity against Plasmodium falciparum 7G8 clone M1 assessed as inhibition of [3H]hypoxanthine incorporation
Plasmodium falciparum [10] = experiment: Antimalarial activity against Plasmodium falciparum 7G8 clone M2 assessed as inhibition of [3H]hypoxanthine incorporation
Plasmodium falciparum [11] = experiment: Antimalarial activity against Plasmodium falciparum 7G8 clone M3 assessed as inhibition of [3H]hypoxanthine incorporation
Plasmodium falciparum [12] = experiment: Antimalarial activity against Plasmodium falciparum 7G8 clone M4 assessed as inhibition of [3H]hypoxanthine incorporation
Plasmodium falciparum [13] = experiment: Antimalarial activity against Plasmodium falciparum D10 clone 1 harboring pfATP6 L263 mutant assessed as inhibition of [3H]hypoxanthine incorporation
Plasmodium falciparum [14] = experiment: Antimalarial activity against Plasmodium falciparum D10 clone 1 assessed as inhibition of [3H]hypoxanthine incorporation
Plasmodium falciparum [15] = experiment: Antimalarial activity against Plasmodium falciparum D10 clone 2 assessed as inhibition of [3H]hypoxanthine incorporation
Plasmodium falciparum [16] = experiment: Antimalarial activity against Plasmodium falciparum D10 clone M1 harboring pfATP6 L263 mutant assessed as inhibition of [3H]hypoxanthine incorporation
Plasmodium falciparum [17] = experiment: Antimalarial activity against Plasmodium falciparum D10 clone M1 assessed as inhibition of [3H]hypoxanthine incorporation
Plasmodium falciparum [18] = experiment: Antimalarial activity against Plasmodium falciparum D10 clone M2 assessed as inhibition of [3H]hypoxanthine incorporation
Plasmodium falciparum [19] = experiment: Antimalarial activity against Plasmodium falciparum D10 clone M3 assessed as inhibition of [3H]hypoxanthine incorporation

| SMILES | IC50 (Plasmodium falciparum [1]) [nM] | IC50 (Plasmodium falciparum [2]) [nM] | IC50 (Plasmodium falciparum [3]) [nM] | IC50 (Plasmodium falciparum [4]) [nM] | IC50 (Plasmodium falciparum [5]) [nM] | IC50 (Plasmodium falciparum [6]) [nM] | IC50 (Plasmodium falciparum [7]) [nM] | IC50 (Plasmodium falciparum [8]) [nM] | IC50 (Plasmodium falciparum [9]) [nM] | IC50 (Plasmodium falciparum [10]) [nM] | IC50 (Plasmodium falciparum [11]) [nM] | IC50 (Plasmodium falciparum [12]) [nM] | IC50 (Plasmodium falciparum [13]) [nM] | IC50 (Plasmodium falciparum [14]) [nM] | IC50 (Plasmodium falciparum [15]) [nM] | IC50 (Plasmodium falciparum [16]) [nM] | IC50 (Plasmodium falciparum [17]) [nM] | IC50 (Plasmodium falciparum [18]) [nM] | IC50 (Plasmodium falciparum [19]) [nM] |
| --- | --- | --- | --- | --- | --- | --- | --- | --- | --- | --- | --- | --- | --- | --- | --- | --- | --- | --- | --- |
| C[C@H]1[C@@H](O)O[C@@H]2O[C@@]3(C)CC[C@H]4[C@H](C)CC[C@@H]1[C@@]24OO3 [ARTENIMOL] | 2.26 | 1.3 | 3.41 | 3.96 | 2.26 | 2.01 | 2.76 | 2.37 | 2.58 | 2.19 | 2.41 | 2.25 | 3.41 | 3.42 | 3.38 | 3.96 | 3.79 | 4.52 | 3.56 |
| C[C@H]1[C@H](OC(=O)CCC(=O)O)O[C@@H]2O[C@@]3(C)CC[C@H]4[C@H](C)CC[C@@H]1[C@@]24OO3 [ARTESUNATE] | 13.5 | 14.9 | 23.6 | 26.2 | 13.5 | 14.2 | 12.1 | 14.9 | 16 | 13.3 | 12.4 | 21.3 | 23.6 | 26.6 | 16.8 | 26.2 | 26.5 | 27.7 | 24.3 |
| C[C@@H]1CC[C@H]2[C@@H](C)C(=O)O[C@@H]3O[C@@]4(C)CC[C@@H]1[C@]32OO4 [ARTEMISININ] | 20.7 | 22.3 | 42.8 | 51.6 | 20.7 | 20.6 | 20.9 | 22.3 | 25.2 | 19.7 | 20.5 | 25.3 | 42.8 | 47.6 | 34.3 | 51.6 | 62.3 | 55.8 | 36.8 |
